Measurements from patent US20250228794A1, “HOMOVANILLYL ALCOHOL (HVA), HVA ISOMER, METHODS OF MAKING COMPOSITIONS COMPRISING SUCH COMPOUNDS, AND METHODS USING SUCH COMPOUNDS” (SOCIETE DES PRODUITS NESTLE S.A., priority 2017, published 2025).
One block for each compound: values may come before it.

Legend:
[1] = Urinary excretion of oleuropein metabolites after intake of olive leaf extract (pilot study, LC-MS)
Protocol: Specifically, urine samples were enzymatically treated to hydrolyze the glucuronide and sulfate moieties and release the free forms which were quantified. After sample purification by liquid-liquid extraction, the chromatographic separation was operated on an Acquity™ UPLC® BEH C18 column (1.7 μm, 2.1×150 mm). The mobile phase consisted of 1 mmol/L ammonium acetate buffer and methanol under gradient conditions at a flow-rate of 0.25 mL/min. Hydroxytyrosol, homovanillyl alcohol, and the homovanillyl alcohol isomer 3-hydroxy-4-methoxyphenethanol (alternatively named 3-hydroxy-4-methoxyphenethyl alcohol) were identified and quantified by high performance liquid chromatography-electrospray ionization tandem mass spectrometry (HPLC-ESI-MS/MS) and by comparison with their corresponding chemically synthesized standards.
The circulating concentration and kinetics of absorption of phenolic compounds and their metabolites in biological fluids (plasma or urine) depends on the matrix in which the compounds are ingested, the dose ingested, the time point of sample collection, the microflora of each individual, and the metabolism of each individual. To develop the most appropriate analytical approach for the measurement of OE absorption, a pilot study was conducted. Specifically, five subjects collected urine at baseline (before intake of the olive leaf extract) and between the intakes of two capsules of the olive leaf extract.
The analytical method (sample preparation, deconjugation conditions, chromatographic detection and separation) was first developed by spiking chemical standards which were commercially available in commercial urine. The deconjugation conditions were determined by using the conjugates available, hydroxytyrosol sulfate and homovanillyl alcohol glucuronide. The commercially available chemical standards were 3,4-Dihydroxybenzoic acid; 3,4-Dihydroxyphenylacetic acid; Homovanillic acid; Homovanillyl alcohol; Homovanillyl alcohol glucuronide (vanillyl methanol glucuronide); Hydroxytyrosol; Hydroxytyrosol sulfate (hydroxytyrosol sulfate triethylammonium salt); and Vanillic acid.
Briefly, the sample preparation consisted of a liquid-liquid extraction with ethyl acetate after a protein precipitation using acidified methanol.
Regarding chromatographic analysis, Oleuropein metabolites were separated by reversed-phase ultra-performance liquid chromatography using a C18-column Acquity UPLC BEH C18 1.7 μm, 2.1 mm×150 mm, (Waters AG, Switzerland). The system consisted of a LC system Acquity™ UPLC® (Waters AG, Switzerland) coupled with a Qtrap 5500 Mass spectrometer detector equipped with an electrospray ionization source (ABSciex, Switzerland). Detection was performed in the negative operating mode at unit resolution.
Specifically, a preliminary analysis of the urine samples collected after intake of the olive leaf extract was performed by electrospray ionization (ESI) in the negative ion mode, scanning for the different [M−H]^− ions at the theoretical m/z of the expected oleuropein metabolites and conjugates (Table 1).
Relative amount of the metabolites identified was first evaluated to clarify if their excretion in urine was increasing after intake of the olive leaf extract. This evaluation was based on the measurement of the area under the corresponding chromatographic peak, which reflects the amount.

[2] = test system: Collagen-II; assay: Collagen-II gene expression in chondrocytes in alginate beads, IL1-α stimulation; format: cell-based; details: two-hour pre-treatment, twenty-four hour IL1-α stimulation; polyphenols at 10 μM; FIG. 16A
Source text: (§1) Chondrocytes in alginate beads were subjected to a two-hour polyphenols pre-treatment followed by a twenty-four hour IL1-α stimulation.
Regarding FIG. 16A, Collagen-II is an anabolism-related gene for major structural components of the extracellular matrix of joints.

[3] = test system: chondrocytes; assay: Effects of oleuropein metabolites on chondrocytes (overall); format: cell-based; details: synthetic form; comparison with hydroxytyrosol
Protocol: As also set forth in detail later herein, several metabolites of oleuropein were tested for their effects on chondrocytes.
as §1

[4] = test system: inducible isoform of nitric oxide synthase (iNOS); assay: iNOS gene expression in chondrocytes (anti-inflammatory effect); format: cell-based; details: FIG. 17A
Source text: as §1
(§2) Then the anti-inflammatory effect of oleuropein metabolites in chondrocytes was studied.
Regarding FIG. 17A, the inducible isoform of nitric oxide synthase (iNOS) is an inflammation-related gene linked to NO production.

[5] = test system: inflamed chondrocytes; assay: Collagen in culture media of inflamed chondrocytes (catabolism); format: cell-based; details: FIG. 18B
Source text: as §1
(§3) Next it was shown that oleuropein metabolites prevent collagen breakdown in inflamed chondrocytes (FIGS. 18A and 18B). In this regard, collagen in extra-cellular matrix corresponds to the collagen synthesized by the cells, i.e., anabolism. […] Collagen in culture media corresponds to the collagen degraded by cells and released in the media, i.e., […].

[6] = test system: cyclooxygenase-2 (COX-2); assay: COX-2 gene expression in chondrocytes (anti-inflammatory effect); format: cell-based; details: FIG. 17B
Protocol: as §1, §2
Regarding FIG. 17B, cyclooxygenase-2 (COX-2) is another inflammation-related gene. It is linked to the Prostaglandin E2 (PGE2) pathway. OLP, EA and HVOH were efficient at 2 μM. OLP, OEA and HVOH were efficient at 10 μM.

[7] = test system: inflamed chondrocytes; assay: Collagen in extra-cellular matrix of inflamed chondrocytes (anabolism); format: cell-based; details: FIG. 18A
Source text: as §1, §3

[8] = urine after intake of olive leaf extract, LC-MS, MS2/MS3

Compound: Elenolic acid sulfate [EA-S]
detection and identification in urine ([1]; in vivo): Neither ion of elenolic acid sulfate nor of elenolic acid glucuronide (EA-S or EA-G) could be detected

Compound: O=C(O)c1ccc(O)c(O)c1 [3,4-dihydroxybenzoic acid]
change of amount in urine (area under the peak) after intake of olive leaf extract versus basal ([1]; in vivo): do not increase | detection and identification in urine ([1]; in vivo): detected in samples after intake of the olive leaf extract and in basal samples

Compound: COc1cc(C(=O)O)ccc1O [vanillic acid, Vanillic acid]
change of amount in urine (area under the peak) after intake of olive leaf extract versus basal ([1]; human, in vivo): strongly increases in urine of subjects 2 and 4, but not as much in subjects 1, 3 and 5 | detection and identification in urine [1, 8]: detected in samples after intake of the olive leaf extract and in basal samples

Compound: COc1cc(CCO)ccc1O[C@@H]1O[C@H](C(=O)O)[C@@H](O)[C@H](O)[C@H]1O [Homovanillyl alcohol glucuronide]
Number of forms confirmed in urine ([1]; in vivo): 1 | detection and identification in urine ([1]; in vivo): Presence & identity confirmed

Compound: COc1ccc(CCO)cc1O [homovanillyl alcohol isomer, 3-hydroxy-4-methoxyphenethanol]
Collagen-II gene expression (protective effect) [2]: significant effect | effects on chondrocytes [3]: more effective than hydroxytyrosol | iNOS gene expression (protective effect) ([4]; 2 μM): significant effect | iNOS gene expression (protective effect) ([4]; 10 μM): significant effect | collagen in culture media (collagen degraded and released, catabolism) [5]: potent anti-breakdown effect (improved over control)

Compound: Hydroxytyrosol sulfate
Number of forms confirmed in urine ([1]; urine after intake of olive leaf extract): 1 | detection and identification in urine [1, 8]: Presence & identity confirmed

Compound: COc1cc(CC(=O)O)ccc1O [homovanillic acid, Homovanillic acid]
change of amount in urine (area under the peak) after intake of olive leaf extract versus basal ([1]; FIG. 15, subjects 1 to 5): do not increase

More lines, main results first:

Number of forms confirmed in urine ([1]; human, in vivo): 1 | average of the area under the chromatographic peak in urine ([1]; human, in vivo): 7.7×10^6 | detection and identification in urine ([1]; in vivo): Presence & identity confirmed | form excreted in urine ([1]; in vivo): mainly as conjugated form | relative abundance excreted in urine ([1]; in vivo): more abundant than HVOH
Compound: OCCc1ccc(O)c(O)c1 [hydroxytyrosol, 3,4-dihydroxyphenylethanol, reference compound]
change of amount in urine (area under the peak) after intake of olive leaf extract versus basal ([1]; in vivo): specifically increase after intake of olive leaf extract

detection and identification in urine ([1]; in vivo): Not detected
Compound: Methylated oleuropein aglycone

COX-2 gene expression ([6]; 2 μM): efficient
Compound: Elenolic acid [EA]
detection and identification in urine ([1]; in vivo): none of them could be confirmed as being EA | collagen in culture media (collagen degraded and released, catabolism) [5]: potent anti-breakdown effect (improved over control)

COX-2 gene expression ([6]; 10 μM): efficient | Number of forms confirmed in urine ([1]; in vivo): 1 | average of the area under the chromatographic peak in urine ([1]; in vivo): 2×10^6
Compound: CC=C1C(O)OC=C(C(=O)OC)C1CC(=O)OCCc1ccc(O)c(O)c1 (stereo not drawn) [oleuropein aglycone, 3,4-dihydroxyphenylethanol-elenolic acid]
collagen in extra-cellular matrix (collagen synthesized by the cells, anabolism) [7]: protective effect

change of amount in urine (area under the peak) after intake of olive leaf extract versus basal ([1]; in vivo): do not increase
Compound: O=C(O)Cc1ccc(O)c(O)c1 [3,4-dihydroxyphenylacetic acid, 3,4-Dihydroxyphenylacetic acid]
detection and identification in urine ([1]; in vivo): detected in samples after intake of the olive leaf extract and in basal samples

Number of forms confirmed in urine ([1]; in vivo): 2 | detection and identification in urine ([1]; in vivo): Presence & identity confirmed
Compound: Oleuropein aglycone glucuronide

Number of forms confirmed in urine ([1]; in vivo): 1
Compound: Oleuropein aglycone sulfate

COX-2 gene expression ([6]; 2 μM): efficient | COX-2 gene expression ([6]; 10 μM): efficient | Number of forms confirmed in urine ([1]; human, in vivo): 2 | detection and identification in urine ([1]; in vivo): Presence & identity confirmed | form excreted in urine ([1]; in vivo): mainly as conjugated form
Compound: COc1cc(CCO)ccc1O [homovanillyl alcohol]
change of amount in urine (area under the peak) after intake of olive leaf extract versus basal ([1]; in vivo): specifically increase after intake of olive leaf extract | effects on chondrocytes [3]: more effective than hydroxytyrosol | collagen in culture media (collagen degraded and released, catabolism) [5]: potent anti-breakdown effect (improved over control)
